In patent publication US4501750A, “Thiazole compounds, a process for preparing same and a pharmaceutical composition containing the thiazole compounds” (Mitsui Toatsu Kaguku Kabushiki Kaisha, priority 1981, dated 1985):
Counter-ions that a name gives are not always drawn.

system: delayed hypersensitivity induced by picryl chloride; test: Reinforcement Test of Delayed Hypersensitivity (picryl chloride, pinna thickness); assay type: in vivo, ICR male mice; conditions: 50 mg per Kg orally, simultaneously with sensitization; 24 hours after challenging; average of both pinnae of eight mice; * P<0.05, ** P<0.01 vs control
From the text: The delayed hypersensitivity induced on a mouse when picryl chloride(2-chloro-1,3,5-trinitrobenzene) is coated on the skin of the mouse is known as a typical cellular immunity.
The above test system was used for the reinforcement tests of the delayed hypersensitivity.
Groups of eight ICR male mice, each having a body weight of about 30 g, were used for the test.
Sensitization was effected by coating a 3% solution of picryl chloride in a 4/1 mixture of olive oil and acetone on the shaved abdomen of each of the mice.
Simultaneously with the sensitization, a solution or suspension of a compound of the present invention dissolved or suspended in a 0.2% solution of carboxymethylcellulose in a physiological saline was orally administered to the mouse at a dose of 50 mg per Kg of its body weight. To each mouse of a control group, a 0.2% carboxymethylcellulose solution was similarly administered in a physiological saline.
The delayed hypersensitivity was induced 7 days after the sensitization by pinching each of the pinnae of each mouse with a pair of forceps whose tip portions were wrapped with a felt impregnated with a 1% solution of picryl chloride in olive oil and coating the pinnae with the solution. The thickness of each pinna was measured before the challenging and 24 hours after the challenging and the ratio of increase of the thickness (average value of both of the pinnae of the eight mice) is shown in Table 1.
For comparison, a similar test was carried out using Levamisole hydrochloride.
F.t tests were carried out on the thus-obtained test results.

| Compound | Ratio of Increase of Pinna Thickness |
| --- | --- |
| c1ccc([C@H]2CN3CCSC3=N2)cc1 [Levamisole.HCl, Levamisole hydrochloride, reference compound] | 31.2% |
| O=C(Nc1nc(-c2ccccc2)cs1)C(=O)Nc1nc(-c2ccccc2)cs1 [drawing 6] | 30.3% |
| O=C(Nc1nc(-c2ccc(Cl)cc2)cs1)C(=O)Nc1nc(-c2ccc(Cl)cc2)cs1 [drawing 7] | 29.5% |
| COc1ccc(-c2csc(NC(=O)C(=O)Nc3nc(-c4ccc(OC)cc4)cs3)n2)cc1 [drawing 8] | 36.5% |
| CSc1sc(NC(=O)C(=O)Nc2nc(-c3ccccc3)c(SC)s2)nc1-c1ccccc1 [drawing 9] | 27.3% |
| CC(Cl)C(=O)Nc1nc(-c2ccccc2)cs1 (stereo not drawn) [drawing 10] | 36.1% |
| CC(Br)C(=O)Nc1nc(-c2ccccc2)cs1 (stereo not drawn) [drawing 11] | 32.9% |

system: adjuvant arthritis; test: Adjuvant Arthritis Test (Mycobacterium tuberculosis adjuvant); assay type: in vivo, SD male rats; conditions: 5 mg per Kg subcutaneously, 9 times in total; left hind leg; * P<0.05, ** P<0.01 vs control
From the text: The adjuvant arthritis in rats caused by the injection of a Mycobacterium tuberculosis adjuvant is often utilized for a model test of chronic rheumatoid arthritis in human.
The mechanism of manifestation of this disease has not completely been elucidated, but it is known that the cellular immunity plays an important role. The immuno-modulating activity of the compounds of the present invention was investigated in accordance with this known adjuvant arthritis test.
8-Week-old SD male rats were used for the test. In 0.1 ml of fluid paraffin, 0.4 mg of dry-dead cells of Mycobacterium tuberculosis were suspended, and the suspension was injected under the heel skin of the right hind leg of each rat. Each of the compounds of the present invention was subcutaneously administered 9 times in total before and after the injection of the adjuvant. Each of the compounds of the present invention was dissolved or suspended in a 0.2% solution of carboxymethylcellulose in physiological saline and administered to each rat at a dose of 5 mg per Kg of the body weight. The swollen volume of the left hind leg was measured during the period of from the day of injection to the day of completion of the test, and the swelling ratio was calculated. For comparison, a similar test was conducted using Levamisole hydrochloride. F.t tests were carried out on the test results obtained.

| Compound | Swell suppression ratio to control group (average value from 16th to 20th days) |
| --- | --- |
| c1ccc([C@H]2CN3CCSC3=N2)cc1 [Levamisole.HCl, Levamisole hydrochloride, reference compound] | 19.8% |
| O=C(Nc1nc(-c2ccccc2)cs1)C(=O)Nc1nc(-c2ccccc2)cs1 [drawing 12] | 51.0% |
| O=C(Nc1nc(-c2ccc(Cl)cc2)cs1)C(=O)Nc1nc(-c2ccc(Cl)cc2)cs1 [drawing 13] | 51.9% |
| COc1ccc(-c2csc(NC(=O)C(=O)Nc3nc(-c4ccc(OC)cc4)cs3)n2)cc1 [drawing 14] | 14.1% |
| CSc1sc(NC(=O)C(=O)Nc2nc(-c3ccccc3)c(SC)s2)nc1-c1ccccc1 [drawing 15] | 35.5% |
| CC(Cl)C(=O)Nc1nc(-c2ccccc2)cs1 (stereo not drawn) [drawing 16] | 12.1% |
| CC(Br)C(=O)Nc1nc(-c2ccccc2)cs1 (stereo not drawn) [drawing 17] | 20.0% |

system: not listed separately; test: Acute Toxicity Test through Oral Administration; assay type: in vivo; conditions: ddY male mice, 7 days observation
From the text: To each of a group of five ddY male mice, was orally administered a medicine dissolved or suspended in physiological saline.

| Compound | estimated LD50 |
| --- | --- |
| c1ccc([C@H]2CN3CCSC3=N2)cc1 [Levamisole.HCl, Levamisole hydrochloride, reference compound] | 200 to 300 mg/kg |
